This is an account of results in patent publication US20210347778A1, “HYDRAZINOPURINE COMPOUND AND TRIAZOLOPURINE COMPOUND FOR INHIBITING XANTHINE OXIDASE” (TERA STONE CO., LTD, priority 2018, published 2021).

Where only a bound is given, the exact number is not on record here.

In data set [1] the target is T1, cow milk-derived xanthine oxidase (XOD) (Bos taurus, UniProt P80457).
T1 construct: cow milk-derived xanthine oxidase (XOD) (10 mU/mL); from tissue; host or cells: cow milk
Briefly: Xanthine oxidase inhibition activity (inhibition of uric acid formation). The format is biochemical. The settings on record: for IC50: xanthine 100 μM, XOD 10 mU/mL, 50 mM phosphate buffer pH 7.4, room temperature 15 minutes, O.D. 292 nm; for xanthine oxidase inhibition activity compared with allopurinol: in words, versus allopurinol. As to the method:
In a 50 mM phosphate buffer (pH 7.4), xanthine (100 μM), cow milk-derived xanthine oxidase (XOD) (10 mU/mL), and a test compound were mixed and the mixture was incubated at room temperature for 15 minutes.

For data set [2] the following is noted: rats; cited from earlier work.
For data set [3] the following is noted: patients administered allopurinol; cited from earlier work.

T1 sequence (P80457 whole entry): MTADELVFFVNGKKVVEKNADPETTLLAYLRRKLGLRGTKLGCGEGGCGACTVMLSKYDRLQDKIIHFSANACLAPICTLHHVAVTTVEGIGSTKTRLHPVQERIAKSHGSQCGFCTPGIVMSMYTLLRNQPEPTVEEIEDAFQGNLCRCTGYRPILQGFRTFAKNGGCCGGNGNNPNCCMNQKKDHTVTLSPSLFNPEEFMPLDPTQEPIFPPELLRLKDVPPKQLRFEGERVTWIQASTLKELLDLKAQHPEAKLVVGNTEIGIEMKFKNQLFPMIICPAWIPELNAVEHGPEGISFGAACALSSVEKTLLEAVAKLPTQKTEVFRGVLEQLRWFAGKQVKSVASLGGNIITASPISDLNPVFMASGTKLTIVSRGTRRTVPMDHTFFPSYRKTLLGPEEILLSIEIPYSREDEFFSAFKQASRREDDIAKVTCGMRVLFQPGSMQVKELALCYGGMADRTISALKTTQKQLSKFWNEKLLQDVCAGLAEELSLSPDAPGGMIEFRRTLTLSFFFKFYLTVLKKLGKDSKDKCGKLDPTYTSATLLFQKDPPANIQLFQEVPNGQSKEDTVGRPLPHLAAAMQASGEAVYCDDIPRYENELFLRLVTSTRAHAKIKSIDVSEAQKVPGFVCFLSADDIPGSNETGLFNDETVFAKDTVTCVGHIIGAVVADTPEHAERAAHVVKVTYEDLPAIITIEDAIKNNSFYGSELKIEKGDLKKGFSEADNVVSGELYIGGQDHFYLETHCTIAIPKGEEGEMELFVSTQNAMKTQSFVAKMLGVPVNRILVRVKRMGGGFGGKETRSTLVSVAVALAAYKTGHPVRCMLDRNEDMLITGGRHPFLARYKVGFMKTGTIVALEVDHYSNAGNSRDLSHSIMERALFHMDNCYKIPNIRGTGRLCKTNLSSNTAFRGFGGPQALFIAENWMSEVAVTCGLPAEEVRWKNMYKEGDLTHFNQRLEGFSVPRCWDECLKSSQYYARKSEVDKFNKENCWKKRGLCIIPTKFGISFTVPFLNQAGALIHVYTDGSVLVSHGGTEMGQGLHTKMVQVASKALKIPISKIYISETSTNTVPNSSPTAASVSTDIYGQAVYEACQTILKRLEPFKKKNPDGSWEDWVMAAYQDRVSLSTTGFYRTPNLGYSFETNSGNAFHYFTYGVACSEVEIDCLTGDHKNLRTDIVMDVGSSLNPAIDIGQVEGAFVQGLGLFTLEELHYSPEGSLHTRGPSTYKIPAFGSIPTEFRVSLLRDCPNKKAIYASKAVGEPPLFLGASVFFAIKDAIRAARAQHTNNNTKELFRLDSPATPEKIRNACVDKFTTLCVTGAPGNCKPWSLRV

As a reminder, the IC50 is the point on the concentration scale where inhibition reaches its midpoint. The low end stands for inhibition by little substance, the high end for a need for much substance. On to `COc1ccccc1C=NN(C)c1nc(=O)[nH]c2nc[nH]c12` [I-14], for which half-maximal inhibition in data set [1] (IC50) was put at 79 nM. The compound `O=c1nc(NN=Cc2ccc(Cl)cc2)c2[nH]cnc2[nH]1` [I-2] displayed an IC50 in data set [1] of 25 nM. The melting point is the temperature, or range, at which the solid turns liquid. Compound `Cn1cnc2c1c1nc(-c3ccc([N+](=O)[O-])cc3)nn1c(=O)n2C` [II-17] gave a melting point greater than 330 °C. In addition, in data set [1], the IC50 is greater than 10000 nM. The matching figures for `Cc1ccc(-c2nc3c4[nH]cnc4[nH]c(=O)n3n2)cc1` [II-7]: greater than 300 °C and 2400 nM.

For `Cc1ccc(C=NNc2nc(=O)[nH]c3nc[nH]c23)cc1` [I-10], the melting point is greater than 300 °C. Half-maximal inhibition in data set [1] (IC50) required 20 nM. For `Cc1nc(-c2ccc(OCC(C)C)c(C#N)c2)sc1C(=O)O` [Febuxostat], in data set [2], the “excreted through non-renal excretion pathways” value is “about 50%”. `CCCCCCCc1nc2c3[nH]cnc3[nH]c(=O)n2n1` [II-6] showed a melting point greater than 270 °C. This compound returned an IC50 in data set [1] of 9200 nM. For `Cn1cnc2c1c1nc(-c3ccc(Cl)cc3)nn1c(=O)n2C` [II-14], the melting point is greater than 330 °C. In data set [1], this compound registered a half-inhibitory concentration (IC50) greater than 10000 nM. The like results for `CCCCCCCC=NNc1nc(=O)[nH]c2nc[nH]c12` [I-8, 6-n-octylidenehydrazino-7H-purin-2(3H)-one] were, in that order, 190 °C and 2020 nM. On to `O=c1[nH]c2nc(-c3ccc(Cl)cc3)[nH]c2c2ncnn12` [II-32], for which the melting point is greater than 330 °C. In addition, in data set [1], the “xanthine oxidase inhibition activity compared with allopurinol” value is given as “higher xanthine oxidase inhibition activity than allopurinol” and it took 1090 nM to reach half-maximal inhibition (IC50). Consider `O=c1nc(NN=Cc2ccc([N+](=O)[O-])cc2)c2[nH]c(-c3ccc(Cl)cc3)nc2[nH]1` [I-43, 8-(4-chlorophenyl)-6-(4-nitrobenzylidenehydrazino)-7H-purin-2(3H)-one], for which the melting point stood at 229 °C. `COc1ccc(C=NNc2nc(=O)[nH]c3nc(-c4ccccc4)[nH]c23)cc1` [I-37] showed a melting point of 314 °C. In data set [1], the “xanthine oxidase inhibition activity compared with allopurinol” value is “higher xanthine oxidase inhibition activity than allopurinol” and half-maximal inhibition (IC50) was put at 9210 nM. Turning to `O=c1[nH]c2nc[nH]c2c2nc(-c3ccc(Cl)cc3)nn12` [II-4], the melting point was determined as 285 °C. In data set [1], this compound gave an IC50 of 66 nM. Consider `O=c1nc(NN=Cc2ccc(O)cc2)c2[nH]cnc2[nH]1` [I-7], for which, in data set [1], 45 nM corresponded to half-maximal inhibition (IC50). Consider `CN(N=Cc1ccc(O)c(O)c1O)c1nc(=O)[nH]c2nc[nH]c12` [I-22], for which the melting point was greater than 300 °C. The same compound had an IC50 in data set [1] greater than 10000 nM. Compound `O=c1nc(NN=Cc2ccc(O)c(O)c2)c2[nH]cnc2[nH]1` [I-12] returned a melting point greater than 300 °C. Inhibition in data set [1] was half-maximal at 349 nM (IC50). As for `COc1ccc(C=NNc2nc(=O)[nH]c3nc[nH]c23)cc1` [I-5], the IC50 in data set [1] worked out at 57 nM. As to `Cc1nc2[nH]c(=O)n3nc(-c4ccc([N+](=O)[O-])cc4)nc3c2[nH]1` [II-24], the melting point was greater than 330 °C. The compound also showed a concentration for half-maximal inhibition (IC50) in data set [1] greater than 10000 nM. As for `O=c1[nH]c2nc[nH]c2c2nc(-c3ccc(O)c(O)c3)nn12` [II-10], the melting point was greater than 285 °C. In data set [1], this compound had an IC50 of 1480 nM.

Regarding `Cc1nnc2c3c(ncn3C)n(C)c(=O)n12` [III-2, 3,6,9-trimethyl-9H-1,2,4-triazolo[3,4-i]purin-5(6H)-one], the melting point turned out to be 270 °C. `COc1cc(C=NNc2nc(=O)[nH]c3nc[nH]c23)cc(OC)c1OC` [I-11]: inhibition in data set [1] was half-maximal at 208 nM (IC50). On to `O=c1nc(NN=Cc2ccc(Cl)cc2)c2[nH]c(-c3ccccc3)nc2[nH]1` [I-35], for which the melting point was greater than 330 °C. The same compound registered an IC50 in data set [1] greater than 10000 nM. Regarding `O=c1[nH]c2nc(-c3ccccc3)[nH]c2c2nc(-c3ccc([N+](=O)[O-])cc3)nn12` [II-31], the melting point was greater than 330 °C. This compound also displayed an IC50 in data set [1] greater than 10000 nM. Turning to `COc1cccc(C=NN(C)c2nc(=O)[nH]c3nc[nH]c23)c1` [I-15], the IC50 in data set [1] was 100 nM.

`O=c1nc(NN=Cc2ccccc2)c2[nH]cnc2[nH]1` [I-9] gave a melting point of 300 °C. The IC50 in data set [1] came to 50 nM. With `O=c1[nH]c2nc[nH]c2c2ncnn12` [II-1], the melting point is 262 °C. For the same compound, the IC50 in data set [1] was greater than 10000 nM.

On to `CN(N=Cc1ccc(F)cc1)c1nc(=O)[nH]c2nc[nH]c12` [I-17], for which half-maximal inhibition in data set [1] (IC50) required 116 nM. As to `O=c1[nH]c2nc(-c3ccccc3)[nH]c2c2ncnn12` [II-25], the melting point is greater than 330 °C. In addition, in data set [1], the “xanthine oxidase inhibition activity compared with allopurinol” value is given as “higher xanthine oxidase inhibition activity than allopurinol” and the IC50 stood at 9910 nM. With `CN(C)c1ccc(C=NNc2nc(=O)[nH]c3nc[nH]c23)cc1` [I-3], half-maximal inhibition in data set [1] (IC50) was put at 75 nM. In turn, `Cc1ccc(C=NNc2nc(=O)[nH]c3nc(-c4ccccc4)[nH]c23)cc1` [I-36] registered a melting point of 321 °C. The IC50 in data set [1] is greater than 10000 nM. Regarding `COc1cc(-c2nc3c4[nH]cnc4[nH]c(=O)n3n2)cc(OC)c1OC` [II-9], the melting point is greater than 283 °C. For the same compound, in data set [1], the IC50 was 2010 nM. The like results for `O=c1[nH]c2nc[nH]c2c2nc(-c3ccccc3)nn12` [II-3] were, in that order, greater than 300 °C and 2570 nM. For the compound `O=c1nc(NN=Cc2ccccc2)c2[nH]c(-c3ccccc3)nc2[nH]1` [I-34], the melting point was 318 °C. In data set [1], this compound gave an IC50 greater than 10000 nM.

As to `O=c1[nH]c2nc[nH]c2c2nc(-c3ccc([N+](=O)[O-])cc3)nn12` [II-8], the melting point was greater than 300 °C. In data set [1], the IC50 was 4270 nM. For the compound `O=c1nc(NN=Cc2ccc([N+](=O)[O-])cc2)c2[nH]c(-c3ccccc3)nc2[nH]1` [I-38, 6-(4-nitrobenzylidenehydrazino)-8-phenyl-7H-purin-2(3H)-one], the melting point was greater than 330 °C. Further, in data set [1], the “xanthine oxidase inhibition activity compared with allopurinol” value is reported as “higher xanthine oxidase inhibition activity than allopurinol” and the IC50 was 4480 nM. For the compound `O=c1nc(NN=Cc2ccc3c(c2)OCO3)c2[nH]cnc2[nH]1` [I-6], the IC50 in data set [1] amounted to 63 nM. In turn, `COc1cc(C=NN(C)c2nc(=O)[nH]c3nc[nH]c23)cc(OC)c1OC` [I-20] gave a melting point greater than 300 °C. The same compound came in with an IC50 in data set [1] greater than 10000 nM.

In the case of `Cn1cnc2c1c1nncn1c(=O)n2C` [III-1, 6,9-dimethyl-9H-1,2,4-triazolo[3,4-i]purin-5(6H)-one], the melting point was 264 °C. `Cc1nc2c3[nH]cnc3[nH]c(=O)n2n1` [II-2]: the melting point was 277 °C. The IC50 in data set [1] was greater than 10000 nM. `Cc1nc2[nH]c(=O)nc(NN=Cc3ccc([N+](=O)[O-])cc3)c2[nH]1` [I-33, 8-methyl-6-(4-nitrobenzylidenehydrazino)-7H-purin-2(3H)-one] showed a melting point greater than 330 °C.

In the case of `O=c1nc(NN=Cc2ccc([N+](=O)[O-])cc2)c2[nH]cnc2[nH]1` [I-4], in data set [1], the IC50 turned out to be 45 nM. In data set [1], `COc1ccc(C=NN(C)c2nc(=O)[nH]c3nc[nH]c23)cc1` [I-16] displayed an IC50 of 76 nM. `CN(N=Cc1ccc(O)cc1)c1nc(=O)[nH]c2nc[nH]c12` [I-18] yielded an IC50 in data set [1] of 93 nM. `COc1ccc(-c2nc3c4[nH]cnc4[nH]c(=O)n3n2)cc1` [II-5] registered a melting point of 288 °C. 130 nM corresponded to half-maximal inhibition in data set [1] (IC50).

In turn, `CN(N=Cc1ccc(O)c(O)c1)c1nc(=O)[nH]c2nc[nH]c12` [I-21] displayed a melting point greater than 300 °C. In addition, in data set [1], the IC50 is greater than 10000 nM. `Oc1ncnc2[nH]ncc12` [allopurinol]: the “patients suffering from side effects (severe skin disorders, hypersensitivity vasculitis)” value in data set [3] was “three to five”.

In data set [1], `O=c1nc(NN=Cc2ccc(F)cc2)c2[nH]cnc2[nH]1` [I-1] registered an IC50 of 38 nM. For `O=c1nc(NN=Cc2ccc(O)c(O)c2O)c2[nH]cnc2[nH]1` [I-13], the melting point was greater than 300 °C. In data set [1], this compound gave an IC50 of 1480 nM. Turning to `CCCCCCCC=NN(C)c1nc(=O)[nH]c2nc[nH]c12` [I-19, 6-(1-methyl-2-n-octylidenehydrazino)-7H-purin-2(3H)-one], the melting point worked out at 248 °C. In data set [1], this compound returned an IC50 greater than 10000 nM.
